Tests used:
[1] = system: Puccinia recondita f. sp. tritici; test: Puccinia recondita f. sp. tritici / wheat / leaf disc preventative (brown rust); type: in vivo; conditions: foliar, wheat leaf segments cv. Kanzler, inoculated 1 day after application, compared to untreated control
Procedure: Example B10: Puccinia recondita f. Sp. Tritici/Wheat/Leaf Disc Preventative (Brown Rust) Wheat leaf segments cv. Kanzler are placed on agar in multiwell plates (24-well format) and sprayed with the formulated test compound diluted in water. The leaf disks are inoculated with a spore suspension of the fungus 1 day after application. The inoculated leaf segments are incubated at 19° C. and 75% rh under a light regime of 12 h light/12 h darkness in a climate cabinet and the activity of a compound is assessed as percent disease control compared to untreated when an appropriate level of disease damage appears in untreated check leaf segments (7-9 days after application). […] […]-10, and P-11.

[2] = system: Puccinia recondita f. sp. tritici; test: Puccinia recondita f. sp. tritici / wheat / leaf disc curative (brown rust); type: in vivo; conditions: foliar, 24 h, wheat leaf segments cv. Kanzler, compound applied 1 day after inoculation, compared to untreated control
Procedure: Example B9: Puccinia recondita f. Sp. Tritici/Wheat/Leaf Disc Curative (Brown Rust) Wheat leaf segments cv. Kanzler are placed on agar in multiwell plates (24-well format). The leaf segments are inoculated with a spore suspension of the fungus. Plates are stored in darkness at 19° C. and 75% rh. The formulated test compound diluted in water is applied 1 day after inoculation. The leaf segments are incubated at 19° C. and 75% rh under a light regime of 12 h light/12 h darkness in a climate cabinet and the activity of a compound is assessed as percent disease control compared to untreated when an appropriate level of disease damage appears in untreated check leaf segments (6-8 days after application). […] […]-9, and P-11.

**Q.** For Cc1sc(N(C(=O)C2CCOC2)c2cc(F)nc(F)c2)nc1C(=O)N(C(=O)C1CCOC1)C1CCC1(C)C (stereo not drawn) [Compound P-1, 2-[(2,6-difluoro-4-pyridyl)-(tetrahydrofuran-3-carbonyl)amino]-N-(2,2-dimethylcyclobutyl)-5-methyl-N-(tetrahydrofuran-3-carbonyl)thiazole-4-carboxamide], which pest or weed control at 200 ppm [1] is on record?
**A.** ≥ 80%

**Q.** What about the pest or weed control at 200 ppm [2] of the same compound?
**A.** ≥ 80%

**Q.** Which pest or weed control at 200 ppm [1] does the source give for Cc1sc(N(C(=O)C2CCCO2)c2cc(F)nc(F)c2)nc1C(=O)NC1CCC1(C)C (stereo not drawn) [Compound P-2, 2-[(2,6-difluoro-4-pyridyl)-(tetrahydrofuran-2-carbonyl)amino]-N-(2,2-dimethylcyclobutyl)-5-methyl-thiazole-4-carboxamide] here?
**A.** ≥ 80%

**Q.** And the pest or weed control at 200 ppm [2]?
**A.** ≥ 80%

**Q.** Which pest or weed control at 200 ppm [1] does the source give for Cc1sc(N(C(=O)C2CCOC2)c2cc(F)nc(F)c2)nc1C(=O)NC1CCC1(C)C (stereo not drawn) [Compound P-3, 2-[(2,6-difluoro-4-pyridyl)-(tetrahydrofuran-3-carbonyl)amino]-N-(2,2-dimethylcyclobutyl)-5-methyl-thiazole-4-carboxamide] here?
**A.** ≥ 80%

**Q.** And the pest or weed control at 200 ppm [2]?
**A.** ≥ 80%

**Q.** Cc1sc(N(C(=O)C2COC2)c2cc(F)nc(F)c2)nc1C(=O)NC1CCC1(C)C (stereo not drawn) [Compound P-4, 2-[(2,6-difluoro-4-pyridyl)-(oxetane-3-carbonyl)amino]-N-(2,2-dimethylcyclobutyl)-5-methyl-thiazole-4-carboxamide] was tested. Which pest or weed control at 200 ppm [1] did it give?
**A.** ≥ 80%

**Q.** What about the pest or weed control at 200 ppm [2] of the same compound?
**A.** ≥ 80%

**Q.** Which results are given for Cc1sc(N(C(=O)C(C)OC(C)(C)C)c2cc(F)nc(F)c2)nc1C(=O)NC1CCC1(C)C (stereo not drawn) [Compound P-5, 2-[2-tert-butoxypropanoyl-(2,6-difluoro-4-pyridyl)amino]-N-(2,2-dimethylcyclobutyl)-5-methyl-thiazole-4-carboxamide]?
**A.** pest or weed control at 200 ppm [1]: ≥ 80%; pest or weed control at 200 ppm [2]: ≥ 80%

**Q.** Which results are given for Cc1sc(N(C(=O)C(C)OC(C)C)c2cc(F)nc(F)c2)nc1C(=O)NC1CCC1(C)C (stereo not drawn) [Compound P-6, 2-[(2,6-difluoro-4-pyridyl)-(2-isopropoxypropanoyl)amino]-N-(2,2-dimethylcyclobutyl)-5-methyl-thiazole-4-carboxamide]?
**A.** pest or weed control at 200 ppm [1]: ≥ 80%; pest or weed control at 200 ppm [2]: ≥ 80%

**Q.** How did the pest or weed control at 200 ppm [1] turn out when Cc1sc(N(C(=O)COC(C)(C)C)c2cc(F)nc(F)c2)nc1C(=O)NC1CCC1(C)C (stereo not drawn) [Compound P-7, 2-[(2-tert-butoxyacetyl)-(2,6-difluoro-4-pyridyl)amino]-N-(2,2-dimethylcyclobutyl)-5-methyl-thiazole-4-carboxamide] was run?
**A.** ≥ 80%

**Q.** For COC(C)C(=O)N(c1cc(F)nc(F)c1)c1nc(C(=O)NC2CCC2(C)C)c(C)s1 (stereo not drawn) [Compound P-9, 2-[(2,6-difluoro-4-pyridyl)-(2-methoxypropanoyl)amino]-N-(2,2-dimethylcyclobutyl)-5-methyl-thiazole-4-carboxamide], which pest or weed control at 200 ppm [1] is on record?
**A.** ≥ 80%

**Q.** And the pest or weed control at 200 ppm [2]?
**A.** ≥ 80%

**Q.** How did the pest or weed control at 200 ppm [1] turn out when Cc1sc(N(C(=O)C(C)S(C)(=O)=O)c2cc(F)nc(F)c2)nc1C(=O)NC1CCC1(C)C (stereo not drawn) [Compound P-10, 2-[(2,6-difluoro-4-pyridyl)-(2-methylsulfonylpropanoyl)amino]-N-(2,2-dimethylcyclobutyl)-5-methyl-thiazole-4-carboxamide] was run?
**A.** ≥ 80%

**Q.** What does the source list for Cc1sc(N(C(=O)C2CCOCC2)c2cc(F)nc(F)c2)nc1C(=O)NC1CCC1(C)C (stereo not drawn) [Compound P-11, 2-[(2,6-difluoro-4-pyridyl)-(tetrahydropyran-4-carbonyl)amino]-N-(2,2-dimethylcyclobutyl)-5-methyl-thiazole-4-carboxamide]?
**A.** pest or weed control at 200 ppm [1]: ≥ 80%; pest or weed control at 200 ppm [2]: ≥ 80%
